Laboratory results taken from patent publication US20260041617A1, “COSMETIC COMPOSITION APPLICABLE TO THE SKIN AND BASED ON A VOLATILE MIXTURE OF ALKANES” (BIOSYNTHIS, priority 2022, published 2026).

Assay: Biodegradability by OECD 301F method (manometric respirometry test)
Description: For the purposes of the present invention, the OECD 301F method makes it possible to assess the biodegradability of a substance by a manometric respirometry test.
The biodegradability of a volatile mixture of alkanes used in the cosmetic compositions applicable to the skin according to the invention was measured according to the OECD 301F method. For comparison, the degradation of isododecane (CAS 13475-82-6) was also measured with this method.
The OECD 301F method is used to characterize the ease of biodegradation of a substance by a manometric respirometry test.

Percentage of degradation according to the OECD 301F method: 0%
biodegradable according to the OECD 301F method (result in words): not biodegradable
SMILES: CC(CC(C)(C)C)CC(C)(C)C [Isododecane (CAS 13475-82-6), 2,2,4,6,6-pentamethylheptane]
